Assay results taken from patent publication EP0525360B1, “Novel phenylacetamide derivatives and processes for the preparation thereof” (KOREA RESEARCH INSTITUTE OF CHEMICAL TECHNOLOGY, priority 1991, dated 1993).
Where a name gives a salt, the structure may show the parent alone. Read-outs that look alike come from different tables or passages of the source.

Tests used:
[1] = test system: Rats(Sprague-Dawley, female); test: Anti-inflammatory test (carrageenin paw edema); assay type: in vivo; details: Rattus norvegicus, sc, 3 h
Procedure: Rats(Sprague-Dawley, female) weighing 100 to 120g were used. Twenty minutes after the test drug was administered(s. c.), carrageenin was injected(0.1mℓ of 1% solution, s. c.) in the plantar surface of the right hind paw.
The percentage of inhibition was determined by the following equation: Inhibition(%) =(Volume of the carrageenin treated foot - Volume of the control foot)/(Volume of the contol foot)x 100 [formula]

[2] = test system: Male albino rats(120-170g) of the Charles River Sprague-Dawley strain; test: Randall-Selitto test (yeast induced hyperalgesia); assay type: in vivo
Procedure: Randall-Selitto Test was carried out by following the method described in Arch. Int. Pharmacodyn.
Male albino rats(120-170g) of the Charles River Sprague-Dawley strain were used. Inflammation was produced by the injection of 0.1mℓ of a 20% suspension of Brewer's yeast into the plantar surface of the rat's hind foot.
The pain threshold was measured as the pressure in mmHg required to induce the desired response(a sharp audible squeak and/or struggle) when the pressure was applied to the foot. Air pressure from an air line was admitted through a needle valve to a 20mℓ glass syringe and to a pressure gauge which was connected by a T-tube. The syringe was mounted with the plunger downward to which was connected a short bullet-shaped Teflon peg. The pressure was applied to the foot of the rat at the rate of 10 mmHg per second. Drug was given 2 hours after the yeast injection. Two hours after the drug administration, threshold response was determined.
The analgesic activity was determined in terms of the percentage of inhibition of response: Inhibition(%) =(Threshold of the treated group - Threshold of the control group)/(Threshold of the control group)x 100 [formula]

mice = test: Tail-flick test (radiant heat); assay type: in vivo; details: p. o.
Procedure: Radiant heat was applied using a beam of high-intensity light focused on a tail spot. The response time, defined as the interval between the onset of the stimulus and the tail flick, was measured electronically(to the nearest 0.1 second). The beam intensity was set at a level giving a mean control reaction time of 3.8±0.4 seconds. […] The percentage of inhibition was determined by the following equation: Inhibition(%) =(Reaction time of the treated group - Reaction time of the control group)/(Reaction time of the control group)x 100 [formula]

KTC-ICR mice [3] = test: phenyl-1,4-benzoquinone(PBQ) induced writhing test; assay type: in vivo; details: Mus musculus
Procedure: (§1) The KTC-ICR mice derived from Charles River Breeding Laboratory in the United States and provided by Experimental Animal Laboratory of Korea Research Institute of Chemical Technology were used as test animals. […] They were tested after having been adjusted to the testing environment for a week. Food and water were given freely; and illumination was maintained on a 12-hour cycle.
(§2) Experiments were performed in two ways: that is, the acetic acid induced writhing test and the phenyl-1,4-benzoquinone(PBQ) induced writhing test.
Alternatively, solutions for the PBQ induced writhing test were prepared by dissolving one of the products synthesized in Examples 33 to 46 in a mixture of Tween 80, alcohol and distilled water (1:5:94); and administered orally to the 5 ICR mice for each test in a dose of 0.3mℓ per 30g of body weight. 60 minutes later, 0.02% PBQ solution was administered intraperitoneally in a dose of 0.1mℓ per 30g of body weight of the test animals. 5 minutes thereafter, at the temperature of 40°C, the number of writhings occurred during a period of 5 minutes due to the PBQ solution administered was measured. For comparison, only the mixture of Tween 80, alcohol and distilled water was administered orally to the control group; and, after 60 minutes, the PBQ solution was administered intraperitoneally to the control group in the same manner as mentioned above.
(§3) The number of writhings suffered by the test group was compared with that of the control group; and the analgesic effect was measured in terms of the percentage of inhibition of writhing(I. W.). I. W. (%) =(A - B)/(A)x 100 [formula] A : the number of writhings suffered by the control group, B : the number of writhings suffered by the test group.
(§4) These ED50 values for the test compounds are shown in the last column of Table 1.

test animals = test: Behavior analysis (side-effect or toxicity scores); assay type: in vivo; set-up: key to Sedation / Dyspnoea / Vasodilation / Convulsion / Salivation / Urination: behavior score; higher number = greater side effects; details: behavior score; for Convulsion / Salivation / Urination: normal value 0; for Dyspnoea / Ptosis / Sedation / Vasodilation: normal value 4
Text: In order to monitor a harmful side-effect or toxicity of the compounds having the formula(I), various behavioral changes in the test animals were observed. […] The higher the number is, the greater the side effects are.

KTC-ICR mice [4] = test: acetic acid induced writhing test; assay type: in vivo; details: Mus musculus; oral; 0.9% acetic acid i.p. 60 minutes later; writhings during 10 minutes; mice 20 to 25g; Examples 1 to 32
Procedure: as §1, §2
Solutions for the acetic acid induced writhing test were prepared by dissolving one of the end products prepared in Examples […] in a saline solution containing 1% by weight of Tween 80 to have a concentration of 5mg/mℓ and diluting it serially with the saline solution. The test solutions were administered orally in a dose of 0.3mℓ per 30g of body weight, using the 5 ICR mice for each test. 60 minutes later, 0.9% acetic acid solution was administered intraperitoneally in a dose of 0.1mℓ per 30g of body weight. 3 minutes thereafter, the number of writhings generated during a period of 10 minutes due to the administration of acetic acid was measured. For comparison purpose, initially, saline solution alone was administered orally to the control group. 60 minutes thereafter, 0.9% acetic acid solution was administered intraperitoneally to the control group.
as §3, §4

acute toxicity test = details: mouse, in vivo, po, per os, 5 weeks old, observed for 14 days
[5] = oral, 0.02% PBQ i.p. 60 minutes later, writhings during 5 minutes, mice 10 to 15g, Examples 33 to 46
[6] = 5 ICR female mice, read-out: LD50(female)
[7] = 5 ICR male mice, read-out: LD50(male)

## CC(=O)Oc1ccccc1C(=O)O [Aspirin]
[1]
  ED50: 109 mg/kg
[2]; dose 100 mg/Kg s. c., 10 rats, pain threshold vs yeast-treated saline control
  Inhibition(%): 80.1%
mice; dose 100 mg/Kg
  Inhibition(%): 0%

## COc1cc(CC(=O)NCCCc2ccc(C)c(C)c2)ccc1OCCN [Example 1-HCl]
[2]; dose 1.5 mg/Kg s. c., 8 rats
  Inhibition(%): 248.3%

## Cc1ccc(CCCNC(=O)Cc2ccc(OCCN)c(N)c2)cc1C [Example 37, N-{3-(3,4-dimethylphenyl)propyl}-4-(2-aminoethoxy)-3-aminophenylacetamide]
KTC-ICR mice [3]; [5]
  ED50: 22.7 mg/kg
Test animals; dose 6.7mg/Kg
  Convulsion: 0
  Salivation: 0
  Urination: 0
  Dyspnoea: 4
  Ptosis: 4
  Sedation: 4
  Vasodilation: 4
Test animals; dose 20mg/Kg
  Convulsion: 0
  Salivation: 0
  Urination: 0
  Dyspnoea: 4
  Ptosis: 5
  Sedation: 4
  Vasodilation: 4
Test animals; dose 60mg/Kg
  Convulsion: 0
  Salivation: 0
  Urination: 0
  Dyspnoea: 4
  Ptosis: 6
  Sedation: 6
  Vasodilation: 4

## NCCOc1ccc(CC(=O)NCCCc2ccc(Cl)cc2)cc1N [Example 39, N-{3-(4-chlorophenyl)propyl}-4-(2-aminoethoxy)-3-aminophenylacetamide]
KTC-ICR mice [3]; [5]
  ED50: 77.6 mg/kg
Test animals; dose 10mg/Kg
  Convulsion: 0
  Salivation: 0
  Urination: 0
  Dyspnoea: 4
  Ptosis: 4
  Sedation: 4
  Vasodilation: 4
Test animals; dose 25mg/Kg
  Convulsion: 0
  Salivation: 0
  Urination: 0
  Dyspnoea: 4
  Ptosis: 4
  Sedation: 4
  Vasodilation: 4
Test animals; dose 50mg/Kg
  Convulsion: 0
  Salivation: 0
  Urination: 0
  Dyspnoea: 4
  Ptosis: 4
  Sedation: 4
  Vasodilation: 4

## CN1CC[C@]23c4c5ccc(O)c4O[C@H]2[C@@H](O)C=C[C@H]3[C@H]1C5 [Morphine]
[2]; rat, in vivo, 3 mg/kg
  Inhibition(%): 391.7%

## Cc1cc(C)cc(CCCNC(=O)Cc2ccc(OCCN)c(F)c2)c1 [Example 15]
KTC-ICR mice [4]
  ED50: 0.02 mg/kg
Acute toxicity test; [6]
  LD50 at 336 h: > 2000 mg/kg
Acute toxicity test; [7]
  LD50 at 336 h: > 2000 mg/kg

## CCCCCCCC/C=C\CCCCCCCC(=O)NCc1ccc(OCCN)c(OC)c1 [NE-21610, reference compound]
KTC-ICR mice [3]; po, writhing test, inducer (acetic acid or PBQ) not stated for this reference
  ED50: > 300 mg/kg
Test animals; dose 10mg/Kg
  Convulsion: 0
  Salivation: 0
  Urination: 0
  Dyspnoea: 4
  Ptosis: 4
  Sedation: 4
  Vasodilation: 4
Test animals; dose 25mg/Kg
  Convulsion: 0
  Salivation: 0
  Urination: 0
  Dyspnoea: 4
  Ptosis: 4
  Sedation: 4
  Vasodilation: 4
Test animals; dose 50mg/Kg
  Convulsion: 0
  Salivation: 0
  Urination: 0
  Dyspnoea: 4
  Ptosis: 5
  Sedation: 5
  Vasodilation: 4
Test animals; dose 100mg/Kg
  Convulsion: 2
  Salivation: 0
  Urination: 0
  Dyspnoea: 6
  Ptosis: 7
  Sedation: 7
  Vasodilation: 4
mice; dose 200 mg/Kg
  Inhibition(%): 50%

## CC(C(=O)O)c1cccc(C(=O)c2ccccc2)c1 (centres unmarked) [Ketoprofen]
[1]
  ED50: 7.2 mg/kg

## NCCOc1ccc(CC(=O)NCCCc2ccc(F)cc2)cc1N [Example 40, N-{3-(4-fluorophenyl)propyl}-4-(2-aminoethoxy)-3-aminophenylacetamide]
KTC-ICR mice [3]; [5]
  ED50: 37.8 mg/kg
Test animals; dose 10mg/Kg
  Convulsion: 0
  Salivation: 0
  Urination: 0
  Dyspnoea: 4
  Ptosis: 4
  Sedation: 4
  Vasodilation: 4
Test animals; dose 25mg/Kg
  Convulsion: 0
  Salivation: 0
  Urination: 0
  Dyspnoea: 4
  Ptosis: 4
  Sedation: 4
  Vasodilation: 4
Test animals; dose 50mg/Kg
  Convulsion: 0
  Salivation: 0
  Urination: 0
  Dyspnoea: 4
  Ptosis: 4
  Sedation: 4
  Vasodilation: 4
mice; dose 100 mg/Kg
  Inhibition(%): 50%

## Cc1ccc(CCCNC(=O)Cc2ccc(OCCN)c(F)c2)cc1 [Example 11]
KTC-ICR mice [4]
  ED50: 0.01 mg/kg
Acute toxicity test; [6]
  LD50 at 336 h: 322 mg/kg
Acute toxicity test; [7]
  LD50 at 336 h: 500 mg/kg

## Cc1ccc(CCCNC(=O)Cc2ccc(OCCN)c(O)c2)cc1C [Example 33, N-{3-(3,4-dimethylphenyl)propyl}-4-(2-aminoethoxy)-3-hydroxyphenylacetamide]
KTC-ICR mice [3]; [5]
  ED50: 0.49 mg/kg
Test animals; dose 0.2mg/Kg
  Convulsion: 0
  Salivation: 0
  Urination: 0
  Dyspnoea: 4
  Ptosis: 4
  Sedation: 4
  Vasodilation: 4
Test animals; dose 0.6mg/Kg
  Convulsion: 0
  Salivation: 0
  Urination: 0
  Dyspnoea: 4
  Ptosis: 4
  Sedation: 5
  Vasodilation: 4
Test animals; dose 2.0mg/Kg
  Convulsion: 0
  Salivation: 0
  Urination: 0
  Dyspnoea: 5
  Ptosis: 6
  Sedation: 7
  Vasodilation: 4
